How the values were obtained:
Format in all cases: ADME, organism-based
[1] = Half life in women plasma at 80 mg by LC/MS/MS analysis; details: female, human
[2] = AUC in human plasma expressing CYP2C8*1/*1 polymorphism at 80 mg by LC/MS/MS analysis
[3] = Half life in human plasma expressing CYP2C9*3 allele carrier polymorphism at 80 mg by LC/MS/MS analysis
[4] = AUC in human plasma expressing CYP2C8*3 allele carrier polymorphism at 80 mg by LC/MS/MS analysis
[5] = Tmax in human plasma expressing CYP2C9*3 allele carrier polymorphism at 80 mg by LC/MS/MS analysis
[6] = Half life in human plasma expressing CYP2C9*1/*1 polymorphism at 80 mg by LC/MS/MS analysis
[7] = Cmax in women plasma at 80 mg by LC/MS/MS analysis; set-up: dose 80 mg; details: female, human
[8] = Half life in human plasma expressing CYP2C8*3 allele carrier polymorphism at 80 mg by LC/MS/MS analysis
[9] = Half life in human plasma expressing CYP2C8*1/*1 polymorphism at 80 mg by LC/MS/MS analysis
[10] = AUC in human plasma expressing CYP2C9*3 allele carrier polymorphism at 80 mg by LC/MS/MS analysis
[11] = Tmax in human plasma expressing CYP2C8*2 allele carrier polymorphism at 80 mg by LC/MS/MS analysis
[12] = Cmax in human plasma expressing CYP2C8*2 allele carrier polymorphism at 80 mg by LC/MS/MS analysis; set-up: dose 80 mg
[13] = Half life in human plasma expressing CYP2C8*2 allele carrier polymorphism at 80 mg by LC/MS/MS analysis
[14] = AUC in human plasma expressing CYP2C8*2 allele carrier polymorphism at 80 mg by LC/MS/MS analysis
[15] = Tmax in women plasma at 80 mg by LC/MS/MS analysis; details: female, human
[16] = Cmax in human plasma expressing CYP2C9*1/*1 polymorphism at 80 mg by LC/MS/MS analysis; set-up: dose 80 mg
[17] = Tmax in human plasma expressing CYP2C8*1/*1 polymorphism at 80 mg by LC/MS/MS analysis
[18] = AUC in men plasma at 80 mg by LC/MS/MS analysis; details: male, human
[19] = Tmax in human plasma expressing CYP2C9*1/*1 polymorphism at 80 mg by LC/MS/MS analysis
[20] = Cmax in men plasma at 80 mg by LC/MS/MS analysis; set-up: dose 80 mg; details: male, human
[21] = AUC in human plasma expressing CYP2C9*1/*1 polymorphism at 80 mg by LC/MS/MS analysis
[22] = Tmax in human plasma expressing CYP2C8*3 allele carrier polymorphism at 80 mg by LC/MS/MS analysis
[23] = Cmax in human plasma expressing CYP2C8*1/*1 polymorphism at 80 mg by LC/MS/MS analysis; set-up: dose 80 mg
[24] = AUC in women plasma at 80 mg by LC/MS/MS analysis; details: female, human
[25] = Tmax in men plasma at 80 mg by LC/MS/MS analysis; details: male, human
[26] = Cmax in human plasma expressing CYP2C8*3 allele carrier polymorphism at 80 mg by LC/MS/MS analysis; set-up: dose 80 mg
[27] = Half life in men plasma at 80 mg by LC/MS/MS analysis; details: male, human
[28] = Cmax in human plasma expressing CYP2C9*3 allele carrier polymorphism at 80 mg by LC/MS/MS analysis; set-up: dose 80 mg
[29] = Half life in human plasma expressing CYP2C9*3 allele carrier polymorphism at 25 to 320 mg by LC/MS/MS analysis
[30] = Cmax in human plasma expressing CYP2C8*4 allele carrier polymorphism at 25 to 320 mg by LC/MS/MS analysis
[31] = species: Homo sapiens; assay: AUC in human plasma expressing CYP2C9*3 allele carrier polymorphism at 25 to 320 mg by LC/MS/MS analysis; details: in vivo
[32] = AUC in men plasma at 25 to 320 mg by LC/MS/MS analysis; details: male, human
[33] = Cmax in women plasma at 25 to 320 mg by LC/MS/MS analysis; details: female, human
[34] = AUC in human plasma expressing CYP2C9*1/*1 polymorphism at 25 to 320 mg by LC/MS/MS analysis
[35] = Tmax in human plasma expressing CYP2C8*3 allele carrier polymorphism at 25 to 320 mg by LC/MS/MS analysis
[36] = Half life in men plasma at 25 to 320 mg by LC/MS/MS analysis; details: male, human
[37] = AUC in human plasma expressing CYP2C8*4 allele carrier polymorphism at 25 to 320 mg by LC/MS/MS analysis
[38] = Tmax in human plasma expressing CYP2C9*1/*1 polymorphism at 25 to 320 mg by LC/MS/MS analysis
[39] = Cmax in human plasma expressing CYP2C8*1/*1 polymorphism at 25 to 320 mg by LC/MS/MS analysis
[40] = Half life in human plasma expressing CYP2C8*3 allele carrier polymorphism at 25 to 320 mg by LC/MS/MS analysis
[41] = Cmax in human plasma expressing CYP2C8*2 allele carrier polymorphism at 25 to 320 mg by LC/MS/MS analysis
[42] = Half life in human plasma expressing CYP2C9*1/*1 polymorphism at 25 to 320 mg by LC/MS/MS analysis
[43] = Cmax in human plasma expressing CYP2C9*3 allele carrier polymorphism at 25 to 320 mg by LC/MS/MS analysis
[44] = Tmax in women plasma at 25 to 320 mg by LC/MS/MS analysis; details: female, human
[45] = Half life in human plasma expressing CYP2C8*1/*1 polymorphism at 25 to 320 mg by LC/MS/MS analysis
[46] = Tmax in human plasma expressing CYP2C8*4 allele carrier polymorphism at 25 to 320 mg by LC/MS/MS analysis
[47] = Half life in women plasma at 25 to 320 mg by LC/MS/MS analysis; details: female, human
[48] = AUC in human plasma expressing CYP2C9*2 allele carrier polymorphism at 25 to 320 mg by LC/MS/MS analysis
[49] = Tmax in human plasma expressing CYP2C8*2 allele carrier polymorphism at 25 to 320 mg by LC/MS/MS analysis
[50] = Tmax in human plasma expressing CYP2C9*3 allele carrier polymorphism at 25 to 320 mg by LC/MS/MS analysis
[51] = Tmax in men plasma at 25 to 320 mg by LC/MS/MS analysis; details: male, human
[52] = AUC in human plasma expressing CYP2C8*3 allele carrier polymorphism at 25 to 320 mg by LC/MS/MS analysis
[53] = Tmax in human plasma expressing CYP2C9*2 allele carrier polymorphism at 25 to 320 mg by LC/MS/MS analysis
[54] = Cmax in human plasma expressing CYP2C9*2 allele carrier polymorphism at 25 to 320 mg by LC/MS/MS analysis
[55] = Cmax in men plasma at 25 to 320 mg by LC/MS/MS analysis; details: male, human
[56] = Tmax in human plasma expressing CYP2C8*1/*1 polymorphism at 25 to 320 mg by LC/MS/MS analysis
[57] = AUC in human plasma expressing CYP2C8*1/*1 polymorphism at 25 to 320 mg by LC/MS/MS analysis
[58] = AUC in women plasma at 25 to 320 mg by LC/MS/MS analysis; details: female, human
[59] = AUC in human plasma expressing CYP2C8*2 allele carrier polymorphism at 25 to 320 mg by LC/MS/MS analysis
[60] = species: Homo sapiens; assay: Cmax in human plasma expressing CYP2C8*3 allele carrier polymorphism at 25 to 320 mg by LC/MS/MS analysis; details: in vivo
[61] = Cmax in human plasma expressing CYP2C9*1/*1 polymorphism at 25 to 320 mg by LC/MS/MS analysis
[62] = Half life in human plasma expressing CYP2C8*4 allele carrier polymorphism at 25 to 320 mg by LC/MS/MS analysis

Question: For `CCCc1nc2c(C)cc(-c3nc4ccccc4n3C)cc2n1Cc1ccc(-c2ccccc2C(=O)O)cc1`, which half-life [1] is on record?
Answer: Its half-life is 33.1 h.

Question: What about the AUC [2] of the same molecule?
Answer: Its AUC is 3010 ng·h/mL.

Question: What about the half-life [3] of the same molecule?
Answer: The half-life was 30.1 h.

Question: What about the AUC [4] of the same molecule?
Answer: Its AUC is 3230 ng·h/mL.

Question: What about the Tmax [5] of the same molecule?
Answer: Its Tmax is 1.1 h.

Question: And the half-life [6]?
Answer: Its half-life is 29.7 h.

Question: What about the Cmax [7] of the same molecule?
Answer: Its Cmax is 590 ng/mL.

Question: What about the half-life [8] of the same molecule?
Answer: The half-life was 33.9 h.

Question: What about the half-life [9] of the same molecule?
Answer: Its half-life is 28.7 h.

Question: What about the AUC [10] of the same molecule?
Answer: The AUC was 3400 ng·h/mL.

Question: And the Tmax [11]?
Answer: Its Tmax is 1.3 h.

Question: And the Cmax [12]?
Answer: Its Cmax is 498 ng/mL.

Question: What about the half-life [13] of the same molecule?
Answer: Its half-life is 29.1 h.

Question: What about the AUC [14] of the same molecule?
Answer: The AUC was 3680 ng·h/mL.

Question: What about the Tmax [15] of the same molecule?
Answer: The Tmax was 1.4 h.

Question: And the Cmax [16]?
Answer: Its Cmax is 446 ng/mL.

Question: What about the Tmax [17] of the same molecule?
Answer: The Tmax was 1.4 h.

Question: What about the AUC [18] of the same molecule?
Answer: The AUC was 2470 ng·h/mL.

Question: And the Tmax [19]?
Answer: Its Tmax is 1.4 h.

Question: And the Cmax [20]?
Answer: The Cmax was 282 ng/mL.

Question: What about the AUC [21] of the same molecule?
Answer: Its AUC is 3130 ng·h/mL.

Question: And the Tmax [22]?
Answer: The Tmax was 1 h.

Question: And the Cmax [23]?
Answer: The Cmax was 437 ng/mL.

Question: And the AUC [24]?
Answer: Its AUC is 3680 ng·h/mL.

Question: What about the Tmax [25] of the same molecule?
Answer: The Tmax was 1.3 h.

Question: And the Cmax [26]?
Answer: The Cmax was 494 ng/mL.

Question: What about the half-life [27] of the same molecule?
Answer: The half-life was 25.1 h.

Question: What about the Cmax [28] of the same molecule?
Answer: The Cmax was 510 ng/mL.

Question: For `CCCCC(=O)N(Cc1ccc(-c2ccccc2-c2nnn[nH]2)cc1)[C@H](C(=O)O)C(C)C`, which half-life [29] is on record?
Answer: The half-life was 9.9 h.

Question: And the Cmax [30]?
Answer: Its Cmax is 4860 ng/mL.

Question: And the AUC [31]?
Answer: The AUC was 31449 ng·h/mL.

Question: What about the AUC [32] of the same molecule?
Answer: Its AUC is 38800 ng·h/mL.

Question: And the Cmax [33]?
Answer: Its Cmax is 4910 ng/mL.

Question: What about the AUC [34] of the same molecule?
Answer: Its AUC is 40600 ng·h/mL.

Question: What about the Tmax [35] of the same molecule?
Answer: The Tmax was 3 h.

Question: What about the half-life [36] of the same molecule?
Answer: The half-life was 9.1 h.

Question: And the AUC [37]?
Answer: Its AUC is 39600 ng·h/mL.

Question: What about the Tmax [38] of the same molecule?
Answer: The Tmax was 3.3 h.

Question: And the Cmax [39]?
Answer: Its Cmax is 4550 ng/mL.

Question: And the half-life [40]?
Answer: The half-life was 9.4 h.

Question: And the Cmax [41]?
Answer: Its Cmax is 6140 ng/mL.

Question: And the half-life [42]?
Answer: Its half-life is 9.1 h.

Question: And the Cmax [43]?
Answer: The Cmax was 4010 ng/mL.

Question: And the Tmax [44]?
Answer: Its Tmax is 3.2 h.

Question: And the half-life [45]?
Answer: The half-life was 9.3 h.

Question: What about the Tmax [46] of the same molecule?
Answer: The Tmax was 2.8 h.

Question: And the half-life [47]?
Answer: The half-life was 9.4 h.

Question: What about the AUC [48] of the same molecule?
Answer: The AUC was 38800 ng·h/mL.

Question: And the Tmax [49]?
Answer: The Tmax was 3.1 h.

Question: What about the Tmax [50] of the same molecule?
Answer: The Tmax was 3 h.

Question: And the Tmax [51]?
Answer: The Tmax was 3.2 h.

Question: And the AUC [52]?
Answer: Its AUC is 37400 ng·h/mL.

Question: And the Tmax [53]?
Answer: The Tmax was 3 h.

Question: And the Cmax [54]?
Answer: The Cmax was 4840 ng/mL.

Question: What about the Cmax [55] of the same molecule?
Answer: Its Cmax is 4590 ng/mL.

Question: What about the Tmax [56] of the same molecule?
Answer: The Tmax was 3.3 h.

Question: What about the AUC [57] of the same molecule?
Answer: The AUC was 36500 ng·h/mL.

Question: What about the AUC [58] of the same molecule?
Answer: The AUC was 38600 ng·h/mL.

Question: What about the AUC [59] of the same molecule?
Answer: Its AUC is 55100 ng·h/mL.

Question: What about the Cmax [60] of the same molecule?
Answer: Its Cmax is 4711 ng/mL.

Question: And the Cmax [61]?
Answer: Its Cmax is 4880 ng/mL.

Question: And the half-life [62]?
Answer: The half-life was 7.6 h.

— ChEMBL document CHEMBL3526037, “Evaluation of the relationship between sex, polymorphisms in CYP2C8 and CYP2C9, and pharmacokinetics of angiotensin receptor blockers” (Drug Metab Dispos, 2013)
